Data as given in ChEMBL document CHEMBL1201862, “PubChem BioAssay data set” (2004).
Calls of active or inactive are those of the source. For most assays here, no stated cut-off is given here; in the data, actives have a measured EC50 and inactives only a lower limit.

Tests used:
[1] = microbe, parasite or virus in culture; type: functional; settings: Mycobacterium tuberculosis
[2] = biological target: T1, Replicative DNA helicase DnaB (Mycobacterium tuberculosis, UniProt P9WMR3); assay: DnaB intein splicing inhibitors, dose response, biochemical, cell-free fluorescence (AID 449749); type: functional
T1 sequence (P9WMR3 whole entry): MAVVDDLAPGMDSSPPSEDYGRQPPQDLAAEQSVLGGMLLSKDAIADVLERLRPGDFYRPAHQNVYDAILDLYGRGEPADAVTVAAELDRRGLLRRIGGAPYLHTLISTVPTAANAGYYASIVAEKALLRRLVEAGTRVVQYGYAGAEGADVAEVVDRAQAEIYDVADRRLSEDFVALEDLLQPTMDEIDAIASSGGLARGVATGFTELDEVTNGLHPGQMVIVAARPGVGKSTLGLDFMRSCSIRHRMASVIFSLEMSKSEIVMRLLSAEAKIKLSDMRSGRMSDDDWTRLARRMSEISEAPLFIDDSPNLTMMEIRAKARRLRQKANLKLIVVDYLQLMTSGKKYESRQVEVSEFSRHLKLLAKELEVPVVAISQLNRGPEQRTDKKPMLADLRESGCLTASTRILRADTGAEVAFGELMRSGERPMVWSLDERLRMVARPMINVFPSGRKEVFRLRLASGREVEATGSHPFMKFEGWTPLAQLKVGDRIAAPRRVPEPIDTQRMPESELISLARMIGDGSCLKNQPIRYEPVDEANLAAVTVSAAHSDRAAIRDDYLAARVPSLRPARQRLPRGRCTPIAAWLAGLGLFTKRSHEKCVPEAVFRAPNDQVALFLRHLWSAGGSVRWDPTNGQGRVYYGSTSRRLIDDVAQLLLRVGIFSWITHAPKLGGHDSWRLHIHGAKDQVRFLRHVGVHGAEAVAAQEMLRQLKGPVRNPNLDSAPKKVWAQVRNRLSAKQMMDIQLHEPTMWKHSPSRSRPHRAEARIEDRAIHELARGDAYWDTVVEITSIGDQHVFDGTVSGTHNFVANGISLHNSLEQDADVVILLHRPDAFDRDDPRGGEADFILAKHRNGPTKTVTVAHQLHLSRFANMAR

Protein RecA = biological target: T2, Protein RecA (Mycobacterium tuberculosis, UniProt P9WHJ3); assay: Fluorescence Cell-Free Homogeneous Dose Retest to Identify Inhibitors of RecA-Intein Splicing Activity. [Related pubchem assays (depositor defined):AID2097, AID2223, AID489010, AID492950]; type: functional
T2 sequence (P9WHJ3 whole entry): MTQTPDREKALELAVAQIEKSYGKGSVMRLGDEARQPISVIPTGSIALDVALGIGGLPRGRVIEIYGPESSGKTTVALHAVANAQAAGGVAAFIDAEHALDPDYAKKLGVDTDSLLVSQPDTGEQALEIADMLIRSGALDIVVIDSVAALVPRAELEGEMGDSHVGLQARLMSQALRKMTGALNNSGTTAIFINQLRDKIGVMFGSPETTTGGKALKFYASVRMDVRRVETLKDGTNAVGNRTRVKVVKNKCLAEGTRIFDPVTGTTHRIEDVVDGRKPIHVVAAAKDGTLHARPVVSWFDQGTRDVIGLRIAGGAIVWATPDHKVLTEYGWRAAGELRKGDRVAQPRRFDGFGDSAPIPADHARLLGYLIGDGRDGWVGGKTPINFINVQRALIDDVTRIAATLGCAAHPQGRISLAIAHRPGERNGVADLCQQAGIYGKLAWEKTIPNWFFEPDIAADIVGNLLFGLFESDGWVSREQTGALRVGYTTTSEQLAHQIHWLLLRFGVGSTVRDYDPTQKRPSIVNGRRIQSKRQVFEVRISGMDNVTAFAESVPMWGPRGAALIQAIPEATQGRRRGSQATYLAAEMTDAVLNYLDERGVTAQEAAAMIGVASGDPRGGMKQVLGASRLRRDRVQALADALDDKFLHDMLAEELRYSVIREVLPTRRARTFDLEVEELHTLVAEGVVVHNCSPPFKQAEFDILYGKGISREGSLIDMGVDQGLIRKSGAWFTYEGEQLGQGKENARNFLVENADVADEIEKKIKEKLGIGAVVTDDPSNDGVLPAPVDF

H4 = assay: Luminescence Cell-Based Dose Response HTS to Identify Activators of 5'UTR Stem-Loop Driven Prion Protein mRNA Translation in H4 Neuroglioblastoma Cells. [Related pubchem assays: 1829 (Project Summary), 1814 (Primary HTS)]; type: functional; settings: Homo sapiens
[3] = Luminescence Cell-Based Dose Confirmation HTS to Identify Activators of 5'UTR Stem-Loop Driven Alpha-Synuclein mRNA Translation in H4 Neuroglioblastoma Cells. [Related pubchem assays: 1829 (Project Summary), 1814 (Primary HTS)]; type: functional
[4] = Luminescence Cell-Based Dose Response HTS to Identify Activators of Luciferase Translation or Activity in H4 […] Cells. [Related pubchem assays: 1829 (Project Summary), 1814 (Primary HTS)]; type: functional
BJ [5] = assay: cytotoxicity toward BJ-TERT-LT-ST fibroblasts, dose response, cell-based, RAS-independent, luminescence (AID 1935); type: functional; settings: Homo sapiens;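 further: BJ fibroblasts immortalized with TERT plus LT and ST oncogenes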
[6] = cytotoxicity toward DRD oncogenic fibroblasts, dose response, cell-based, non-viral oncogenic, luminescence (AID 1934); type: functional; settings: Homo sapiens
BJ [7] = assay: cytotoxicity toward BJ-TERT fibroblasts, dose response, cell-based, RAS-independent, luminescence (AID 1933); type: functional; settings: Homo sapiens
BJ [8] = assay: cells; type: functional, cell-based; settings: Homo sapiens
[9] = Luminescence Cell-Based Dose Retest to Confirm Inhibitors of Cancer Stem Cells. [Related pubchem assays (depositor defined):AID2717, AID2721]; type: functional; settings: Homo sapiens
[10] = NIH-3T3 fibroblast cytotoxicity, dose response, cytotoxicity control, cell-based, fluorescence, Alamar Blue, secondary assay (AID 2327); type: functional;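 further: NIH-3T3 mouse fibroblasts cultured with fluconazole at 8 µg/mL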
Streptococcus = assay: Group A Streptococcus viability loss, dose response, counter-screen for streptokinase expression inhibitor project, luminescence, BacTiterGlo (AID 1915); type: functional, organism-based;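 further: potency for reduction of bacterial viability or growth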
[11] = cytotoxicity toward NIH3T3 fibroblasts, dose response, counter-screen, cell-based, ATP luminescence, mouse fibroblasts (AID 2010); type: functional;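 further: cells exposed to compound for about 90 hours before reading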
[12] = inhibitors of intracellular T. cruzi replication, confirmation, NIH3T3 host cells, beta-gal luminescence (AID 2044); type: functional, cell-based;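 further: intracellular parasites grown in NIH/3T3 mouse fibroblasts as host cells; luminescent beta-galactosidase reporter signal from transgenic T. cruzi replicating inside host cells; inhibitors lower the luminescence signal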
Streptokinase A = biological target: T3, Streptokinase A (Streptococcus pyogenes serotype M1, UniProt P10520); assay: S. pyogenes streptokinase expression inhibitors, potency, dose response, plasminogen activation absorbance, OD405 (AID 1914); type: functional, Streptococcus pyogenes M1 GAS;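 further: secreted streptokinase activity via plasminogen activation per viability signal from cell pellet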
T3 sequence (P10520 whole entry): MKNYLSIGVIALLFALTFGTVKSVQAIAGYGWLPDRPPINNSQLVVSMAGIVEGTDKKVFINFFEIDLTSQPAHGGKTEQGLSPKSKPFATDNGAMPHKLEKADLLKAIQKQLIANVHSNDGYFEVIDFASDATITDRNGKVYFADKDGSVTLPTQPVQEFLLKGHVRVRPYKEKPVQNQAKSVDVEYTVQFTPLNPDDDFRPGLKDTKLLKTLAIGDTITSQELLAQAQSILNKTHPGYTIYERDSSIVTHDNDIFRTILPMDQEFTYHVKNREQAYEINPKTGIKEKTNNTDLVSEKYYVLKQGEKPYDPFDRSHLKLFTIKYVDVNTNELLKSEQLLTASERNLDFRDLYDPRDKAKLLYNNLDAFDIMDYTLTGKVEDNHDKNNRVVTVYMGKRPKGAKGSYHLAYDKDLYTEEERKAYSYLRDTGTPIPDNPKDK

[13] = test system: Streptococcus sp. 'group A'; assay: growth inhibition of control SK(-) GAS strain, dose response, counter-screen for streptokinase expression inhibitor project, luminescence, kanamycin, BacTiterGlo, confirmation (AID 1900); type: functional, organism-based
[14] = C. albicans growth with fluconazole, confirmation, fluorescence, retest (AID 2467); type: functional, cell-based

With `O=C(Nc1ccc(Cl)cc1)N1CCN(c2ccc3nnc(-c4ccc(F)cc4)n3n2)CC1` as the compound, how does the CC50 [1] read?
The CC50 was 19.3 µM (active).

For `CCOC(=O)c1c(CC(C)C)csc1NC(=O)CCl`, which AC50 [2] is on record?
The AC50 was 9.8 µM (active).

What about the EC50 (Protein RecA) of the same compound?
Its EC50 is 2.39 µM (active).

What about the CC50 [1] of the same compound?
The CC50 was > 40 µM (active).

Which results are given for `CCOc1ccc(-c2nc(C)c(C(C)=O)n2O)cc1`?
EC50 (H4): 8.13 µM (active); EC50 [3]: 14.1 µM (active); EC50 [4]: 9.13 µM (active)

With `COc1ccc(C2(c3ccc(OC)cc3)NC(=O)N(CC(=O)Nc3ccc(OC(F)F)cc3)C2=O)cc1` as the compound, how does the CC50 [1] read?
Its CC50 is 36.2 µM (active).

With `CCC1=Nc2cc(C(=O)NCc3cccnc3)ccc2Sc2ccc(C)cc21` as the compound, how does the EC50 (BJ [5]) read?
The EC50 was 16.6 µM (active).

What about the EC50 [6] of the same compound?
Its EC50 is 3.06 µM (active).

What about the EC50 (BJ [7]) of the same compound?
The EC50 was 4.48 µM (active).

What about the EC50 (BJ [8]) of the same compound?
The EC50 was 101 µM (active).

And the AC50 [9]?
Its AC50 is 0.493 µM (active).

Which results are given for `COc1ccc(-c2cc(C3CCN(Cc4cccc(C(F)(F)F)c4)CC3)[nH]n2)cc1`?
EC50 [10]: > 160 µM (inactive); EC50 (Streptococcus): > 150 µM (not active); EC50 [11]: > 60 µM (not active); EC50 [12]: 0.626 µM (active); CC50 [1]: 35.5 µM (active); EC50 (Streptokinase A): > 150 µM (not active); EC50 [13]: 25.1 µM (active); EC50 [14]: > 38 µM (not active)

For `Clc1ccc(SCc2cn3ccsc3n2)cc1`, which EC50 (H4) is on record?
The EC50 was > 120 µM (not active).

And the EC50 [3]?
The EC50 was 89.9 µM (active).

And the EC50 [4]?
The EC50 was 21 µM (active).

Which results are given for `Cc1ccc(/C=C2\SC(=S)N(CCC(=O)N3CCCCC3)C2=O)cc1`?
EC50 (BJ [5]): > 150 µM (not active); EC50 [6]: > 150 µM (not active); EC50 (BJ [7]): > 150 µM (not active); EC50 (BJ [8]): > 150 µM (inconclusive)

Which CC50 [1] does the source give for `COc1cc2[nH]c3c(N4CCN(c5ccccn5)CC4)ncnc3c2cc1OC` here?
The CC50 was 11.1 µM (active).
